Source: ChEMBL document CHEMBL1154080, “2D-QSAR and 3D-QSAR/CoMFA analyses of the N-terminal substituted anthranilic acid based CCK(1) receptor antagonists: 'Hic Rhodus, hic saltus'” (Bioorg Med Chem, 2009)

Key:
[1] = biological target: T1, Cholecystokinin receptor type A (Rattus norvegicus) (UniProt P30551); test: Displacement of [125I]-CCK8 from CCK1 receptor in rat pancreatic acinar cells at 3 uM
T1 sequence (whole entry): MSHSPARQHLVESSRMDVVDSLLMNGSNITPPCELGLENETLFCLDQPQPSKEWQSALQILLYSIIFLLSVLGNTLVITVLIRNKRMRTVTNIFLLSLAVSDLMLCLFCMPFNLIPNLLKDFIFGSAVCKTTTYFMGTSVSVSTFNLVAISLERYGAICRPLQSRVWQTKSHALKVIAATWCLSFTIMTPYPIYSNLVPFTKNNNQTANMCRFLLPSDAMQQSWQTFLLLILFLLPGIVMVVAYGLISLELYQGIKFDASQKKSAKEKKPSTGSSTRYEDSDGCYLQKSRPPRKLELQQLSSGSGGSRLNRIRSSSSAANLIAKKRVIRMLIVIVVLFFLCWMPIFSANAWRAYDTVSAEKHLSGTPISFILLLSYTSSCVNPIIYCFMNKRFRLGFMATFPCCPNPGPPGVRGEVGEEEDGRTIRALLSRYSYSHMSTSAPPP

[2] = organism: Cavia porcellus; test: Displacement of [125I]-CCK8 from CCK2 receptor in guinea pig cerebral cortex at 30 uM; type: tissue-based
[3] = (§1) Displacement of [125I]-CCK8 from CCK2 receptor in guinea pig cerebral cortex; type: tissue-based, Cavia porcellus
[4] = biological target: T2, Cholecystokinin receptor type A (Rattus norvegicus, UniProt P30551); test: Displacement of [125I]-CCK8 from CCK1 receptor in rat pancreatic acinar cells
T2 sequence (P30551 whole entry): T1 sequence (whole entry)

[5] = biological target: T1, Cholecystokinin receptor type A (Rattus norvegicus); test: Displacement of [125I]-CCK8 from CCK1 receptor in rat pancreatic acinar cells 10 uM
[6] = organism: Cavia porcellus; test: Displacement of [125I]-CCK8 from CCK2 receptor in guinea pig cerebral cortex at 3 uM; type: tissue-based
[7] = biological target: T1, Cholecystokinin receptor type A (Rattus norvegicus); test: Displacement of [125I]-CCK8 from CCK1 receptor in rat pancreatic acinar cells at 1 uM
[8] = organism: Cavia porcellus; test: Displacement of [125I]-CCK8 from CCK2 receptor in guinea pig cerebral cortex at 10 uM; type: tissue-based
[9] = organism: Cavia porcellus; test: as §1; type: tissue-based; details: concentration not given here
[10] = biological target: T1, Cholecystokinin receptor type A (Rattus norvegicus); test: Displacement of [125I]-CCK8 from CCK1 receptor in rat pancreatic acinar cells 30 uM

| IC50 [3] | IC50 [4] | SMILES | other results |
| --- | --- | --- | --- |
| – | – | O=C(Nc1ccccc1C(=O)NC(Cc1ccccc1)C(=O)O)c1ccco1 (racemic) | inhibition [1]: 24%; inhibition [2]: 27% |
| 16.4 µM | – | O=C(Nc1ccccc1C(=O)NC(Cc1ccccc1)C(=O)O)c1cc2ccccc2[nH]1 (racemic) | – |
| 18.7 µM | 0.159 µM | O=C(Nc1ccccc1C(=O)NC(Cc1ccccc1)C(=O)O)c1cc2cccc(F)c2[nH]1 (racemic) | – |
| 10.8 µM | – | O=C(Nc1ccccc1C(=O)NC(Cc1ccccc1)C(=O)O)c1cc2ccccc2s1 (racemic) | – |
| 10.3 µM | – | O=C(Nc1ccccc1C(=O)NC(Cc1ccccc1)C(=O)O)c1nc2ccccc2[nH]1 (racemic) | – |
| – | – | O=C(CCc1ccccc1)Nc1ccccc1C(=O)NC(Cc1ccccc1)C(=O)O (racemic) | inhibition [2]: 37%; inhibition [5]: < 20% |
| – | – | O=C(/C=C/c1ccccc1)Nc1ccccc1C(=O)NC(Cc1ccccc1)C(=O)O (racemic) | inhibition [2]: 49% |
| – | – | O=C(Nc1ccccc1C(=O)NC(Cc1ccccc1)C(=O)O)c1cc2cc(OCc3ccccc3)ccc2[nH]1 (racemic) | inhibition [6]: < 20%; inhibition [7]: < 20% |
| – | 1.84 µM | O=C(Nc1ccccc1C(=O)NC(Cc1ccccc1)C(=O)O)c1cc2cc(Cl)ccc2[nH]1 (racemic) | inhibition [2]: 31% |
| 9.4 µM | – | O=C(Nc1ccccc1C(=O)NC(Cc1ccccc1)C(=O)O)c1cc2cc(F)cc(F)c2[nH]1 (racemic) | inhibition [5]: 59% |
| – | – | O=C(Nc1ccccc1C(=O)NC(Cc1ccccc1)C(=O)O)c1ccccn1 (racemic) | inhibition [1]: < 20%; inhibition [2]: 31% |
| 17 µM | 0.106 µM | O=C(Nc1ccccc1C(=O)N[C@H](Cc1ccccc1)C(=O)O)c1cc2ccccc2[nH]1 | – |
| 8.9 µM | 3.55 µM | O=C(Nc1ccccc1C(=O)N[C@@H](Cc1ccccc1)C(=O)O)c1cc2cccc(F)c2[nH]1 | – |
| 13.7 µM | 0.891 µM | O=C(Nc1ccccc1C(=O)NC(Cc1ccccc1)C(=O)O)c1cc2ccccc2o1 (racemic) | – |
| 67.9 µM | 0.151 µM | O=C(Nc1ccccc1C(=O)N[C@H](Cc1ccccc1)C(=O)O)c1cc2cc(F)ccc2[nH]1 | – |
| 9.8 µM | 2.06 µM | Cc1c(C(=O)Nc2ccccc2C(=O)NC(Cc2ccccc2)C(=O)O)[nH]c2ccccc12 (racemic) | – |
| – | 30.1 µM | O=C(Nc1ccccc1C(=O)N[C@@H](Cc1ccccc1)C(=O)O)c1cc2cc(F)ccc2[nH]1 | inhibition [2]: 20% |
| – | – | CC(C)(C)C(=O)Nc1ccccc1C(=O)NC(Cc1ccccc1)C(=O)O (racemic) | inhibition [2]: 24%; inhibition [5]: < 20% |
| – | – | O=C(Nc1ccccc1C(=O)NC(Cc1ccccc1)C(=O)O)c1cnccn1 (racemic) | inhibition [1]: < 20%; inhibition [2]: < 20% |

| IC50 [3] | IC50 [4] | SMILES | other results |
| --- | --- | --- | --- |
| 13.4 µM | – | O=C(CCc1c[nH]c2ccccc12)Nc1ccccc1C(=O)NC(Cc1ccccc1)C(=O)O (racemic) | – |
| 7.31 µM | – | O=C(NC(Cc1ccccc1)C(=O)O)c1ccccc1NS(=O)(=O)c1ccc2ccccc2c1 (racemic) | inhibition [5]: < 20% |
| 14.6 µM | – | O=C(Nc1ccccc1C(=O)NC(Cc1ccccc1)C(=O)O)c1ccc2ccccc2n1 (racemic) | inhibition [5]: 48% |
| 10 µM | – | Cn1c(C(=O)Nc2ccccc2C(=O)NC(Cc2ccccc2)C(=O)O)cc2ccccc21 (racemic) | – |
| 5.9 µM | – | O=C(NC(Cc1ccccc1)C(=O)O)c1ccccc1NS(=O)(=O)c1cccc2ccccc12 (racemic) | inhibition [5]: < 20% |
| 70 µM | – | O=C(Nc1ccccc1C(=O)NC(Cc1ccccc1)C(=O)O)c1cc2c([nH]1)CCCC2 (racemic) | – |
| 19.8 µM | 0.055 µM | O=C(Nc1ccccc1C(=O)N[C@H](Cc1ccccc1)C(=O)O)c1cc2cccc(F)c2[nH]1 | – |
| 17.1 µM | – | COc1ccc2[nH]c(C(=O)Nc3ccccc3C(=O)NC(Cc3ccccc3)C(=O)O)cc2c1 (racemic) | inhibition [1]: 42% |
| 9.6 µM | 0.937 µM | O=C(Nc1ccccc1C(=O)NC(Cc1ccccc1)C(=O)O)c1cc2c(F)cccc2[nH]1 (racemic) | – |
| – | – | CC(C)(C)CC(=O)Nc1ccccc1C(=O)NC(Cc1ccccc1)C(=O)O (racemic) | inhibition [2]: 37%; inhibition [5]: < 20% |
| – | – | O=C(Nc1ccccc1C(=O)NC(Cc1ccccc1)C(=O)O)C1=Cc2ccccc2C1 (racemic) | inhibition [8]: < 20% |
| – | 2.56 µM | O=C(Nc1ccccc1C(=O)NC(Cc1ccccc1)C(=O)O)c1cccs1 (racemic) | inhibition [2]: 24% |
| 36.8 µM | 0.294 µM | O=C(Nc1ccccc1C(=O)NC(Cc1ccccc1)C(=O)O)c1cc2ccc(F)cc2[nH]1 (racemic) | – |
| 14.5 µM | – | O=C(NC(Cc1ccccc1)C(=O)O)c1ccccc1NC(=O)C12CC3CC(CC(C3)C1)C2 (racemic) | inhibition [5]: < 20% |
| 15 µM | – | O=C(NC(Cc1ccccc1)C(=O)O)c1ccccc1NC(=O)c1ccnc2ccccc12 (racemic) | inhibition [1]: < 20% |
| – | – | O=C(Nc1ccccc1C(=O)NC(Cc1ccccc1)C(=O)O)c1ccc2[nH]ccc2c1 (racemic) | inhibition [5]: 41% |
| – | – | O=C(Nc1ccccc1C(=O)NC(Cc1ccccc1)C(=O)O)c1ccc[nH]1 (racemic) | inhibition [1]: < 20% |
| 18.7 µM | – | O=C(Nc1ccccc1C(=O)NC(Cc1ccccc1)C(=O)O)c1cnc2ccccc2c1 (racemic) | – |
| – | 3.55 µM | O=C(Nc1ccccc1C(=O)NC(Cc1ccccc1)C(=O)O)c1cc2cc([N+](=O)[O-])ccc2[nH]1 (racemic) | inhibition [2]: 31% |

| IC50 [3] | IC50 [4] | SMILES | other results |
| --- | --- | --- | --- |
| 60.5 µM | 13.1 µM | O=C(Nc1ccccc1C(=O)NC(Cc1ccccc1)C(=O)O)C1=CC2CCCC2N1 (racemic) | – |
| 6.57 µM | – | O=C(NC(Cc1ccccc1)C(=O)O)c1ccccc1NC(=O)c1cccc2ccccc12 (racemic) | inhibition [5]: < 20% |
| 30.2 µM | – | O=C(NC(Cc1ccccc1)C(=O)O)c1ccccc1NC(=O)c1c[nH]c2ccccc12 (racemic) | – |
| 10.2 µM | 0.671 µM | Cc1cccc2cc(C(=O)Nc3ccccc3C(=O)NC(Cc3ccccc3)C(=O)O)[nH]c12 (racemic) | – |
| 4.2 µM | 2.79 µM | Cc1ccc2[nH]c(C(=O)Nc3ccccc3C(=O)NC(Cc3ccccc3)C(=O)O)cc2c1 (racemic) | – |
| 10.6 µM | 0.314 µM | O=C(Nc1ccccc1C(=O)NC(Cc1ccccc1)C(=O)O)c1cc2cc(F)ccc2[nH]1 (racemic) | – |
| – | – | Cn1cccc1C(=O)Nc1ccccc1C(=O)NC(Cc1ccccc1)C(=O)O (racemic) | inhibition [1]: 21% |
| – | – | COc1cc2cc(C(=O)Nc3ccccc3C(=O)NC(Cc3ccccc3)C(=O)O)[nH]c2cc1OC (racemic) | inhibition [6]: < 20%; inhibition [7]: < 20% |
| – | 10.2 µM | O=C(Nc1ccccc1C(=O)N[C@@H](Cc1ccccc1)C(=O)O)c1cc2ccccc2[nH]1 | inhibition [9]: 52% |
| – | 1.11 µM | Cn1c(C(=O)Nc2ccccc2C(=O)NC(Cc2ccccc2)C(=O)O)cc2cc([N+](=O)[O-])ccc21 (racemic) | inhibition [6]: < 20% |
| – | – | O=C(Nc1ccccc1C(=O)NC(Cc1ccccc1)C(=O)O)c1cccnc1 (racemic) | inhibition [1]: < 20%; inhibition [2]: 44% |
| – | 13.3 µM | O=C(NC(Cc1ccccc1)C(=O)O)c1ccccc1NC(=O)c1nccc2ccccc12 (racemic) | inhibition [2]: 53% |
| – | – | O=C(Nc1ccccc1C(=O)NC(Cc1ccccc1)C(=O)O)c1ccncc1 (racemic) | inhibition [1]: < 20%; inhibition [2]: 26% |
| – | – | O=C(Cc1ccccc1)Nc1ccccc1C(=O)NC(Cc1ccccc1)C(=O)O (racemic) | inhibition [2]: 36%; inhibition [5]: < 20% |
| 15.4 µM | – | O=C(CC12CC3CC(CC(C3)C1)C2)Nc1ccccc1C(=O)NC(Cc1ccccc1)C(=O)O (racemic) | inhibition [10]: 51% |
| 13.7 µM | – | CC1=C(C(=O)Nc2ccccc2C(=O)NC(Cc2ccccc2)C(=O)O)Cc2ccccc21 (racemic) | – |
| 11.2 µM | 0.538 µM | O=C(Nc1ccccc1C(=O)NC(Cc1ccccc1)C(=O)O)c1cc2cccc(C(F)(F)F)c2[nH]1 (racemic) | – |
| – | – | O=C(/C=C/c1ccccc1[N+](=O)[O-])Nc1ccccc1C(=O)NC(Cc1ccccc1)C(=O)O (racemic) | inhibition [1]: < 20%; inhibition [2]: 46% |
| – | – | O=C(Cc1c[nH]c2ccccc12)Nc1ccccc1C(=O)NC(Cc1ccccc1)C(=O)O (racemic) | inhibition [2]: 23%; inhibition [5]: < 20% |
